Experimental data taken from the CheMixHub drug solubility set.

Assay: xn = mol fraction of the nth substance listed, in the solute-free solvent

Cl.N=C(N)N + CN1CCCC1=O + CCCO
solubility (g/100 g solution)
Conditions | 278.15 K | 283.15 K | 288.15 K | 293.15 K | 298.15 K | 303.15 K | 308.15 K | 313.15 K | 318.15 K | 323.15 K
x2 = 0.06317 | 8.4 | 9.4 | 10.7 | 11.5 | 12.7 | 13.3 | 15.1 | 16.1 | 17.7 | 18.6
x2 = 0.2064 | 15.9 | 17 | 17.8 | 19.2 | 20.1 | 21.4 | 22.1 | 23.2 | 24.7 | 25.3
x2 = 0.3774 | 28.5 | 29.2 | 30.4 | 31 | 32.1 | 32.6 | 33.7 | 34.4 | 35.4 | 35.9
x2 = 0.5858 | 37.2 | 37.8 | 39.1 | 40.2 | 41.4 | 42.1 | 43.4 | 44.3 | 46 | 47.3
x2 = 0.845 | 41.9 | 43.3 | 44.2 | 45.5 | 46.7 | 47.9 | 49.3 | 50.4 | 52.6 | 53.1

Cc1ncc(C[n+]2csc(CCO)c2C)c(N)n1.O=[N+]([O-])[O-] + O + CC(C)=O
solubility (g/100 g solution)
Conditions | 278.15 K | 283.15 K | 288.15 K | 293.15 K | 298.15 K | 303.15 K | 308.15 K | 313.15 K
x2 = 0.3 | 0.0632 | 0.0724 | 0.0831 | 0.0951 | 0.118 | 0.138 | 0.161 | 0.193
x2 = 0.4 | 0.169 | 0.198 | 0.227 | 0.252 | 0.298 | 0.344 | 0.393 | 0.437
x2 = 0.5 | 0.394 | 0.441 | 0.498 | 0.556 | 0.639 | 0.733 | 0.842 | 0.951
x2 = 0.6 | 0.648 | 0.746 | 0.87 | 0.996 | 1.16 | 1.37 | 1.64 | 2
x2 = 0.7 | 1.08 | 1.24 | 1.45 | 1.69 | 1.98 | 2.3 | 2.69 | 3.23
x2 = 0.8 | 1.55 | 1.8 | 2.14 | 2.53 | 2.97 | 3.56 | 4.14 | 4.86
x2 = 0.9 | 1.85 | 2.17 | 2.54 | 3.11 | 3.62 | 4.28 | 5 | 5.96

CCC(C)n1ncn(-c2ccc(N3CCN(c4ccc(OCC5COC(Cn6cncn6)(c6ccc(Cl)cc6Cl)O5)cc4)CC3)cc2)c1=O (stereo unspecified) + ClCCl + CO
solubility (g/100 g solution)
Conditions | x2 = 0.04066 | x2 = 0.08707 | x2 = 0.1405 | x2 = 0.2028 | x2 = 0.2761 | x2 = 0.364 | x2 = 0.4709 | x2 = 0.6041 | x2 = 0.7744
288.15 K | 0.122 | 0.244 | 0.561 | 1.46 | 4.71 | 10.6 | 19.3 | 28 | 31.4
293.15 K | 0.147 | 0.294 | 0.696 | 1.84 | 5.79 | 12.5 | 21.2 | 29.4 | 32.6
298.15 K | 0.177 | 0.355 | 0.855 | 2.28 | 6.97 | 14.5 | 23.2 | 30.8 | 33.9
303.15 K | 0.212 | 0.426 | 1.04 | 2.83 | 8.37 | 16.8 | 25.3 | 32.2 | 35
308.15 K | 0.253 | 0.508 | 1.26 | 3.5 | 9.95 | 19.3 | 27.6 | 33.6 | 36.2

Cl.N=C(N)N + COCCO + CCCO
solubility (g/100 g solution)
Conditions | 278.15 K | 283.15 K | 288.15 K | 293.15 K | 298.15 K | 303.15 K | 308.15 K | 313.15 K | 318.15 K | 323.15 K
x2 = 0.08075 | 10.4 | 11.1 | 12.4 | 13.1 | 14.6 | 15.7 | 16.7 | 17.6 | 19.2 | 20.2
x2 = 0.253 | 17.4 | 18.7 | 20.1 | 20.9 | 21.8 | 23.2 | 24.1 | 24.9 | 25.7 | 26.9
x2 = 0.4413 | 23.9 | 24.8 | 25.9 | 26.6 | 27.7 | 28.3 | 29.1 | 30 | 30.9 | 31.4
x2 = 0.6479 | 29.4 | 30.1 | 30.7 | 31.8 | 32.2 | 33.2 | 33.8 | 34.3 | 35 | 35.6
x2 = 0.8768 | 32.5 | 33.2 | 34.3 | 34.9 | 35.8 | 36.6 | 37.1 | 38.3 | 38.9 | 39.5
